Source: patent publication US12595266B2, “Pesticidally active heterocyclic derivatives with sulfur containing substituents” (SYNGENTA CROP PROTECTION AG, priority 2020, dated 2026)

Key:
Format in all cases: in vivo
[1] = tested on: Chilo suppressalis (Striped Rice Stemborer); experiment: Activity against Chilo suppressalis (striped rice stemborer); settings: 144 h, application rate of 200 ppm, artificial diet, L2 larvae, 6 days after infestation, read-out: control (at least one of mortality, anti-feedant effect, growth inhibition)
Procedure: Example B2: Activity Against Chilo suppressalis (Striped Rice Stemborer)
24-well microtiter plates with artificial diet were treated with aqueous test solutions prepared from 10′000 ppm DMSO stock solutions by pipetting. After drying, the plates were infested with L2 larvae (6-8 per well). The samples were assessed for mortality, anti-feeding effect, and growth inhibition in comparison to untreated samples 6 days after infestation. Control of Chilo suppressalis by a test sample is given when at least one of the categories mortality, anti-feedant effect, and growth inhibition is higher than the untreated sample.

[2] = tested on: Diabrotica balteata (Corn Root Worm); experiment: Activity against Diabrotica balteata (corn root worm); settings: 96 h, application rate of 200 ppm, maize sprouts sprayed, L2 larvae, 4 days after infestation, read-out: effect in at least one of the two categories (mortality or growth inhibition)
Procedure: Example B3: Activity Against Diabrotica balteata (Corn Root Worm)
Maize sprouts placed onto an agar layer in 24-well microtiter plates were treated with aqueous test solutions prepared from 10′000 ppm DMSO stock solutions by spraying. After drying, the plates were infested with L2 larvae (6 to 10 per well). The samples were assessed for mortality and growth inhibition in comparison to untreated samples 4 days after infestation.

[3] = tested on: Euschistus heros (Neotropical Brown Stink Bug); experiment: Activity against Euschistus heros (neotropical brown stink bug); settings: 120 h, application rate of 200 ppm, soybean leaves sprayed, N2 nymphs, 5 days after infestation, read-out: effect in at least one of the two categories (mortality or growth inhibition)
Procedure: Example B4: Activity Against Euschistus heros (Neotropical Brown Stink Bug)
Soybean leaves on agar in 24-well microtiter plates were sprayed with aqueous test solutions prepared from 10′000 ppm DMSO stock solutions. After drying the leaves were infested with N2 nymphs. The samples were assessed for mortality and growth inhibition in comparison to untreated samples 5 days after infestation.

[4] = tested on: Frankliniella occidentalis (Western Flower Thrips); experiment: Activity against Frankliniella occidentalis (western flower thrips), feeding/contact activity; settings: foliar, 168 h, application rate of 200 ppm, sunflower leaf discs sprayed, population of mixed ages, 7 days after infestation
Procedure: Example B5: Activity Against Frankliniella occidentalis (Western Flower Thrips) Feeding/Contact Activity
Sunflower leaf discs were placed on agar in 24-well microtiter plates and sprayed with aqueous test solutions prepared from […] stock solutions. After drying the leaf discs were infested with a Frankliniella population of mixed ages. The samples were assessed for mortality 7 days after infestation.

[5] = tested on: Myzus persicae (Green Peach Aphid); experiment: Activity against Myzus persicae (green peach aphid), feeding/contact activity; settings: foliar, 144 h, application rate of 200 ppm, sunflower leaf discs sprayed, aphid population of mixed ages, 6 days after infestation
Procedure: Example B6: Activity Against Myzus persicae (Green Peach Aphid) Feeding/Contact Activity
Sunflower leaf discs were placed onto agar in a 24-well microtiter plate and sprayed with aqueous test solutions prepared from 10′000 ppm DMSO stock solutions. After drying, the leaf discs were infested with an aphid population of mixed ages. The samples were assessed for mortality 6 days after infestation.

[6] = tested on: Plutella xylostella (Diamond Back Moth); experiment: Activity against Plutella xylostella (diamond back moth); settings: 192 h, application rate of 200 ppm, artificial diet, Plutella eggs, 8 days after infestation, read-out: effect in at least one of the two categories (mortality or growth inhibition)
Procedure: Example B7: Activity Against Plutella xylostella (Diamond Back Moth)
24-well microtiter plates with artificial diet were treated with aqueous test solutions prepared from 10′000 ppm DMSO stock solutions by pipetting. After drying, Plutella eggs were pipetted through a plastic stencil onto a gel blotting paper and the plate was closed with it. The samples were assessed for mortality and growth inhibition in comparison to untreated samples 8 days after infestation.

[7] = tested on: Spodoptera littoralis (Egyptian Cotton Leaf Worm); experiment: Activity against Spodoptera littoralis (Egyptian cotton leaf worm); settings: foliar, 72 h, application rate of 200 ppm, cotton leaf discs sprayed, L1 larvae, 3 days after infestation, read-out: control (at least one of mortality, anti-feedant effect, growth inhibition)
Procedure: Example B8: Activity Against Spodoptera littoralis (Egyptian Cotton Leaf Worm)
Cotton leaf discs were placed onto agar in 24-well microtiter plates and sprayed with aqueous test solutions prepared from 10′000 ppm DMSO stock solutions. After drying the leaf discs were infested with five L1 larvae. The samples were assessed for mortality, anti-feeding effect, and growth inhibition in comparison to untreated samples 3 days after infestation. Control of Spodoptera littoralis by a test sample is given when at least one of the categories mortality, anti-feedant effect, and growth inhibition is higher than the untreated sample.

[8] = tested on: Carpocapsa (Cydia) Pomonella (Codling Moth); experiment: Activity against Carpocapsa (Cydia) pomonella (codling moth), larvicide, feeding/contact; settings: 336 h, application rate of 12.5 ppm, paraffin-coated diet cubes sprayed, L1 larvae, 14 days after infestation, 26-27° C.
Procedure: Example B10: Activity Against Carpocapsa (Cydia) Pomonella (Codling Moth) Larvicide, Feeding/Contact
Diet cubes coated with paraffin were sprayed with diluted test solutions in an application chamber. After drying off the treated cubes (10 replicates) were infested with 1 L1 larvae. Samples were incubated at 26-27° C. and checked 14 days after infestation for mortality and growth inhibition.

CCS(=O)(=O)c1c(N2Cc3cc4c(cc3C2=O)OC(F)(F)O4)nc(-c2ccc(C3(C#N)CC3)cc2)n1C [Compound P2, 1-[4-[4-(2,2-difluoro-7-oxo-5H-[1,3]dioxolo[4,5-f]isoindol-6-yl)-5-ethylsulfonyl-1-methyl-imidazol-2-yl]phenyl]cyclopropanecarbonitrile]
≥ 80%: percent control (mortality, anti-feedant effect or growth inhibition) at 200 ppm [1] | percent effect (mortality or growth inhibition) at 200 ppm [2] | percent effect (mortality or growth inhibition) at 200 ppm [3] | mortality at 200 ppm [4] | mortality at 200 ppm [5] | percent effect (mortality or growth inhibition) at 200 ppm [6] | percent control (mortality, anti-feedant effect or growth inhibition) at 200 ppm [7] | mortality at 12.5 ppm [8]
